According to paper PMC4434909, “In vitro properties of designed antimicrobial peptides that exhibit potent antipneumococcal activity and produces synergism in combination with penicillin” (Scientific Reports, 2015):

Columns and labels:
[1] = test system: human erythrocytes; test: Hemolytic activity; type: cell-based
Protocol: Hemolytic assay was performed as described. Freshly drawn human erythrocytes were rinsed three times with PBS and resuspended in PBS to 4% (v/v). One hundred microliters of the suspension was added to 96-well microtiter plate containing equal volume of peptides to give final concentrations of peptides encompassing the range of 1.96–250 μg/ml. PBS and 0.1% (v/v) Triton-X 100 were used as 0% and 100% hemolytic control respectively. Plates were incubated at 37°C for 1 hr. Subsequently, the plate was centrifuged and the supernatant was transferred to a new plate. The release of hemoglobin in the supernatant was monitored at absorbance of 450 nm using Glomax Multidetection system (Promega, USA). Results were pooled from three independent experiments and expressed as mean ± SD. HC10 and HC50 were defined as the peptide concentrations causing 10% and 50% hemolysis on human erythrocytes, respectively. Hmax was the percentage hemolysis observed at the maximum concentration as defined throughout this study (all peptides 250 μg/ml, PEN 4 μg/ml).

[2] = test system: NL20 cell line; test: Cytotoxicity against human cell lines (CellTiter 96 AQueous); type: cell-based
Protocol: (§1) Both the NL20 human lung bronchial normal epithelial cell line and the A549 human lung alveolar adenocarcinoma epithelial cell line were used for cell cytotoxicity tests. Besides investigating the cytotoxicity of peptides, differences in cell viability between the two cell lines can be used to evaluate the cell line selectivity and to assess potential anticancer potential of the peptides. NL20 cell line was grown in Ham's F12 medium and A549 cell line was grown in Roswell Park Memorial Institute medium. Both media were supplemented with fetal bovine serum to 10% (v/v) as growth medium or 2% (v/v) as maintenance medium in cell cytotoxicity testing. The assay was performed as described by Lee et al.[26]. NL20 cells was seeded overnight at 3 × 10^4 cells/well in 96-well cell culture-treated flat bottom microtiter plate and treated with serial dilutions of peptide at a final concentration of 1.95–250 μg/ml. PEN was tested from 0.03–4 μg/ml, the same range used to classify the susceptibility of pneumococcal isolates in this study. Test using A549 cells followed the same procedures with 1 × 10^4 cells/well. Plates were incubated at 37°C under 5% CO2 for 24, 48, and 72 hrs. Cell viability was detected by using CellTiter 96® AQueous Non-Radioactive Cell Proliferation assay (Promega, USA) and the colorimetric changes were read with Glomax multidetection system (Promega, USA) at OD 490 nm. Results were pooled from three independent experiments and expressed as mean ± SD. […] Imax was the percentage of cell viable treated with peptides/PEN at the maximum concentration as defined throughout this study (all peptides 250 μg/ml, PEN 4 μg/ml).

[3] = test system: A549 cell line; test: as above; type: cell-based
Protocol: as §1

[4] = test system: PRSP, PISP, and PSSP; type: cell-based, Streptococcus pneumoniae; conditions: 30 min post treatment, 2× MIC, 5 × 10^6 CFU/ml in CAMHB, plate count, relative to untreated control
Protocol: This assay was performed to evaluate the killing kinetics of peptides. One PRSP, PISP, and PSSP isolate were each grown and prepared to 5 × 10^6 CFU/ml. Each isolate in CAMHB was challenged with peptides at two times the respective MIC values. At the indicated time intervals (0, 30, 60, 120, 150, 180, 210, and 240 min; “0” indicate pretreatment), 10 μl of suspension was removed and immediately serially diluted in cold phosphate-buffered saline to arrest further reaction before spread-plated on MHA to obtain viable colony counts. The percentage cell recovered was calculated by dividing the surviving CFU of the treated cells over the surviving CFU of the untreated control cells at the respective time points. Results were pooled from three independent experiments and expressed as mean ± standard deviation (SD).

penicillin [reference compound]
HC10 [1]: >4 µg/mL
HC50 [1]: >4 µg/mL
IC50, NL20 cell line, 24 hrs [2]: >4 µg/mL
IC50, NL20 cell line, 48 hrs [2]: >4 µg/mL
IC50, NL20 cell line, 72 hrs [2]: >4 µg/mL
Imax, NL20 cell line, 24 hrs [2]: 105.2 ± 0.2%
Imax, NL20 cell line, 48 hrs [2]: 106.1 ± 6.2%
Imax, NL20 cell line, 72 hrs [2]: 88.3 ± 0.4%
IC50, A549 cell line, 24 hrs [3]: >4 µg/mL
IC50, A549 cell line, 48 hrs [3]: >4 µg/mL
IC50, A549 cell line, 72 hrs [3]: >4 µg/mL
CFU recovered (viability), all three groups of pneumococci [4]: 60–78%
